The values below come from article PMC7827406, “Structure–Activity Relationship (SAR) Study of Spautin-1 to Entail the Discovery of Novel NEK4 Inhibitors” (International Journal of Molecular Sciences, 2021).

The structures appear in SMILES notation. Like-named read-outs stand apart in the source and are kept apart here.

Assay in all cases: biochemical
Common to all, as to design: Eurofins KinaseProfiler full panel at Km ATP, residual kinase activity (%) relative to DMSO

One test deals with Hck(h) (Homo sapiens, UniProt P08631). The procedure, abridged: (§1)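 Two 10 µM single-concentration screens were run: a competition-binding screen, in which DNA-tagged kinase bound to immobilized ligands was quantified by qPCR, and a radiometric activity panel at Km ATP. Each is expressed as residual kinase activity (%).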
A further test addresses T1, IKKε(h) (Homo sapiens, UniProt Q14164).
T1 construct: gene IKBKE
T1 sequence (Q14164 1-716): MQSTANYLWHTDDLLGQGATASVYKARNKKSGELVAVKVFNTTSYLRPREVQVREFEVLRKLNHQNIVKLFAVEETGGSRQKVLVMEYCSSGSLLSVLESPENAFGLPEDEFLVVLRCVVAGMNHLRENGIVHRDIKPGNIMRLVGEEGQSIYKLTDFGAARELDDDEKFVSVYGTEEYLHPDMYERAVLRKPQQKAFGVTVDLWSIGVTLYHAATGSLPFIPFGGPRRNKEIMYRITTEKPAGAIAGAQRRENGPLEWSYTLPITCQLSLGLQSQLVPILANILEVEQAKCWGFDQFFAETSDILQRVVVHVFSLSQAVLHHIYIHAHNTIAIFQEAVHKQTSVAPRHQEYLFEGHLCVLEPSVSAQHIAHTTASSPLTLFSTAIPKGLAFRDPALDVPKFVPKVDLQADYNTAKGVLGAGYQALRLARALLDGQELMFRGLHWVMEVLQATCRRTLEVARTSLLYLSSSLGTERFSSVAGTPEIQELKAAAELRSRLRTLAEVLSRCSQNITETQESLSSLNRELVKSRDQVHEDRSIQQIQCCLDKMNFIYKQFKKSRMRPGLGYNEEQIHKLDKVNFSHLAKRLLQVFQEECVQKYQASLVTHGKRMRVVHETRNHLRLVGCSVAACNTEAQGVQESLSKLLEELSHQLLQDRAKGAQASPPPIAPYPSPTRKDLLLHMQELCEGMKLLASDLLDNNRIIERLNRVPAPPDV
The procedure, abridged: as §1

The target of another test is T2, ZIPK(h) (Homo sapiens, UniProt O43293).
T2 construct: gene DAPK3
Put shortly:
as §1

In the next test the target is T3, HPK1(h) (Homo sapiens, UniProt Q92918).
T3 construct: gene MAP4K1
Put shortly: as §1

The target in a further test is T4, SAPK2a(T106M)(h) (Homo sapiens, UniProt Q16539, T106M).
T4 construct: gene MAPK14
Put shortly:
as §1

The target in a further test is T5, CDK5/p35(h) (Homo sapiens, UniProt Q00535).
T5 construct: p35
Put shortly:
as §1

The next test addresses T6, Abl (M351T)(h) (Homo sapiens, UniProt P00519, M351T).
T6 construct: gene ABL1
Put shortly:
as §1

For a further test, the target named is T7, Rse(h) (Homo sapiens, UniProt Q06418).
T7 construct: gene TYRO3
T7 sequence (Q06418 1-890): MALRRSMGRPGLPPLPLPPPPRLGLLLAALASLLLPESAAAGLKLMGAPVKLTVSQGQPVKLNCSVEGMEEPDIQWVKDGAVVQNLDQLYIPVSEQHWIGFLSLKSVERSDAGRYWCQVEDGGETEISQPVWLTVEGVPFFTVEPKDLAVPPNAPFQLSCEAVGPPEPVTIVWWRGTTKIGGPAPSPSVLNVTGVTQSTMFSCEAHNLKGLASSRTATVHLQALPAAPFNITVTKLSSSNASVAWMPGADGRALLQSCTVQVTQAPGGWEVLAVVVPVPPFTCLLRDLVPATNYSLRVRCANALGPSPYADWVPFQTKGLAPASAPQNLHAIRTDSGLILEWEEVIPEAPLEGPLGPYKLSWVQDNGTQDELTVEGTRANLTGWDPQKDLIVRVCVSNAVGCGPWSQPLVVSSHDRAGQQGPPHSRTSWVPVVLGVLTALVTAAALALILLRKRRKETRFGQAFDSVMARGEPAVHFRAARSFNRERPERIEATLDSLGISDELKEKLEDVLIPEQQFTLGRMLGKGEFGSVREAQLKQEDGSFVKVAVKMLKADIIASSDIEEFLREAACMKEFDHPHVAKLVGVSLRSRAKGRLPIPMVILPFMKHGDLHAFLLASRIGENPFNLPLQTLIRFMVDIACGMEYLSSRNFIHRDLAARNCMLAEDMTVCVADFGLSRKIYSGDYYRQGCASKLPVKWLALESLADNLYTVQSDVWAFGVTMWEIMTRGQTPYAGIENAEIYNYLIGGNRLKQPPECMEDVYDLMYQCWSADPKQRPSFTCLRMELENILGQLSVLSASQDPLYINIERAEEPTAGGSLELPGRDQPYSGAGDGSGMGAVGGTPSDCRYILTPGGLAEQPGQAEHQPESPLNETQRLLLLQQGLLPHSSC
Put shortly:
as §1

A further test concerns the target SRPK2(h) (Homo sapiens, UniProt P78362). The procedure, abridged: as §1
[1] abbreviates: read-out: Residual activity (%) Spautin-1 5aa.
The mark [2] stands for this setting: read-out: Residual activity (%) 5as.
[3] abbreviates: read-out: Residual activity (%) 5at.
Where [4] appears, read: read-out: Residual activity (%) 5ay.

T3 sequence (Q92918 whole entry): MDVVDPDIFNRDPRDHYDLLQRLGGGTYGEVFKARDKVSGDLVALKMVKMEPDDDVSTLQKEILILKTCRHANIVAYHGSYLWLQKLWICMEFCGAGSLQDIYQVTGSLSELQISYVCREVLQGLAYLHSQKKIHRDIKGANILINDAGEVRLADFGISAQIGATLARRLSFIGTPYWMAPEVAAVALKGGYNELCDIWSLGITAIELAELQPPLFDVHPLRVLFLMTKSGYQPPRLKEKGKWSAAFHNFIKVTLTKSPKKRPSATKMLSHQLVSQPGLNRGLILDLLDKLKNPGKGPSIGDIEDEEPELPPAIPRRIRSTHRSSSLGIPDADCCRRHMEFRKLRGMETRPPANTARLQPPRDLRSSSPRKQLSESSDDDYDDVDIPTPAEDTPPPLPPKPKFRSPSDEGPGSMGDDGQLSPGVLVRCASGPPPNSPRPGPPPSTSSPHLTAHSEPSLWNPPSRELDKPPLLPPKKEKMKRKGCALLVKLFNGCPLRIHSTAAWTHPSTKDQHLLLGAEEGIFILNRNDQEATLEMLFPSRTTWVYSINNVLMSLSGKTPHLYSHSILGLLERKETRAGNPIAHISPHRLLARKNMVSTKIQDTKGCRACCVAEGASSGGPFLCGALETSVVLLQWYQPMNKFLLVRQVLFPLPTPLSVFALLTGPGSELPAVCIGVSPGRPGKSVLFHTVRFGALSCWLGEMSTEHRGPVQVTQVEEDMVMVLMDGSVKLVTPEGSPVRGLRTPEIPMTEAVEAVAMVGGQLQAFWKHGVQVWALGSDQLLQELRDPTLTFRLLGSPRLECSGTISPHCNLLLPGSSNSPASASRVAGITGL
SRPK2(h), sequence (P78362 whole entry): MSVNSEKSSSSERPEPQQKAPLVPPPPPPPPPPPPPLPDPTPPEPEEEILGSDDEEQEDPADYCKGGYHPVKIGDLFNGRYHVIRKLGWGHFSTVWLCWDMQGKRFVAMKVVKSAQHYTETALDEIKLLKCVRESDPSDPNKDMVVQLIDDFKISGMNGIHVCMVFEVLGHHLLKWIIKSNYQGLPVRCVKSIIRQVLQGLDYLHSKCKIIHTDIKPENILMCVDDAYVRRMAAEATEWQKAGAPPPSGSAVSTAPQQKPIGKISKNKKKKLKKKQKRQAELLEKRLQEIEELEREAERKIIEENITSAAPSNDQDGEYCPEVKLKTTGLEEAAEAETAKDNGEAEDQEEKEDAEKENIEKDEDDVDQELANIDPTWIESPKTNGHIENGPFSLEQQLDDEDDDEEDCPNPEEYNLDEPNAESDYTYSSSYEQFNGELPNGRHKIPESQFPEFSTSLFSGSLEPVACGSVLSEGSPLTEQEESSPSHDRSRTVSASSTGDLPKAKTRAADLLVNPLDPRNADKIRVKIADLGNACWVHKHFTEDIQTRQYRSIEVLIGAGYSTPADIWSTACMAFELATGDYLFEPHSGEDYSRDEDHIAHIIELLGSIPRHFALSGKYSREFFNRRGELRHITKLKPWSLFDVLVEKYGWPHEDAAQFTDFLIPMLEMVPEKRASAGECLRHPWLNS
T2 sequence (O43293 whole entry): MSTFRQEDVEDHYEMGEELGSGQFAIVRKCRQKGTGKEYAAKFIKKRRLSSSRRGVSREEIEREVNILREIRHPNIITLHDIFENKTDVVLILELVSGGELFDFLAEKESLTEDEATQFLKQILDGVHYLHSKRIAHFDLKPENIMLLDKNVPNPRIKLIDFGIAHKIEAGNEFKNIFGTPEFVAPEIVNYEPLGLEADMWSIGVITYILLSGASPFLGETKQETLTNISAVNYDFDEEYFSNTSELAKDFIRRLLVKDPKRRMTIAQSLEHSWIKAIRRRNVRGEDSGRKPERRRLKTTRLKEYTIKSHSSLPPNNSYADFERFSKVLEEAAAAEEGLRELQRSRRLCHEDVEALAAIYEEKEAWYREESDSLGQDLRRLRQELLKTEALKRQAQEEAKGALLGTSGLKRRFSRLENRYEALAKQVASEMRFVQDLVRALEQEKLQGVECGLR
T4 sequence (Q16539 whole entry T106M): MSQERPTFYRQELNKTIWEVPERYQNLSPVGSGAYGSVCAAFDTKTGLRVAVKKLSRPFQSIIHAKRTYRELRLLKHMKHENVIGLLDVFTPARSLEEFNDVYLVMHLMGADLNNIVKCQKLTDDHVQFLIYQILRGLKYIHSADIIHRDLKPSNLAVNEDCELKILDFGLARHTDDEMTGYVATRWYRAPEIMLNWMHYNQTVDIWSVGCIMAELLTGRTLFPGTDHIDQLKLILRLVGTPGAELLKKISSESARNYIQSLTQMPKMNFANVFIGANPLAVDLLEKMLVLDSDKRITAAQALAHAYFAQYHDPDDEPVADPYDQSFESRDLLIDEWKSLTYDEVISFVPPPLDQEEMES
T5 sequence (Q00535 whole entry): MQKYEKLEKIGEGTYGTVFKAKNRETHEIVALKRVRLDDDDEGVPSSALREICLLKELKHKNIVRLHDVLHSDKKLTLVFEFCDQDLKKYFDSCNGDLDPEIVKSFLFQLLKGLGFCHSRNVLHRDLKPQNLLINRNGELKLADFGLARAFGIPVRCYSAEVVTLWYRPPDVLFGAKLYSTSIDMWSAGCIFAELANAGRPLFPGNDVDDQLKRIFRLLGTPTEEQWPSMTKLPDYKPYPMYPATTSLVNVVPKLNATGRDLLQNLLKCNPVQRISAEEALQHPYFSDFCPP
T5 sequence (Q15078 whole entry partner): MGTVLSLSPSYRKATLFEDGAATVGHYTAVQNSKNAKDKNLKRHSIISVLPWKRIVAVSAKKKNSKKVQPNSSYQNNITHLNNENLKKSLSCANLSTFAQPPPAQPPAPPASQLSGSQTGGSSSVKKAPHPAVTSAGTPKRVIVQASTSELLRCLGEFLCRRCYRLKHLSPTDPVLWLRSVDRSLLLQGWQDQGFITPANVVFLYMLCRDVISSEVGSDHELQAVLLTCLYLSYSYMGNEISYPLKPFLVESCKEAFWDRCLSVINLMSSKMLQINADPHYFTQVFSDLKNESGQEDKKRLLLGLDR
Hck(h), sequence (P08631 whole entry): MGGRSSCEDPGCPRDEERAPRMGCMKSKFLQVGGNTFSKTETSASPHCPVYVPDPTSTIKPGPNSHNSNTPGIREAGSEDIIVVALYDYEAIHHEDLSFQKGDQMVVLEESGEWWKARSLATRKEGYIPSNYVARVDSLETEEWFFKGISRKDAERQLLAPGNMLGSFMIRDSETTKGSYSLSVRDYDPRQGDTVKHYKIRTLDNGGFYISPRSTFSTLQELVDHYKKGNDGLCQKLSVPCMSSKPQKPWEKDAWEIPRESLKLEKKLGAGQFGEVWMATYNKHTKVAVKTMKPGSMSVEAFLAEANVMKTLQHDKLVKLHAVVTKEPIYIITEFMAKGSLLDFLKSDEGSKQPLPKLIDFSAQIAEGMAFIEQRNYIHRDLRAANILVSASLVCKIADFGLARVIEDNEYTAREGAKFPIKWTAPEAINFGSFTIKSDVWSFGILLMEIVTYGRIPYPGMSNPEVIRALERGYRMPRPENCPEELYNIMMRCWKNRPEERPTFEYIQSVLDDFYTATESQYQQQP

Consider `Fc1ccc(CNc2ncnc3ccc(F)cc23)cc1` [5aa, 6-Fluoro-N-(4-fluorobenzyl)-4-Quinazolinamine], for which the remaining activity at 10 µM at Hck(h) (setting [1]) came to 72%; at IKKε(h) (setting [1]), 64%; at ZIPK(h) (setting [1]), 97%; at HPK1(h) (setting [1]), 92%; on SAPK2a(T106M)(h) (setting [1]), 95%; on CDK5/p35(h) (setting [1]), 87%. Further, the figures for the remaining activity at 10 µM at Abl (M351T)(h) (setting [1]), at Rse(h) (setting [1]) and on SRPK2(h) (setting [1]) were 93%, 104% and 80%, respectively.

For the molecule `Fc1ccc(CCNc2ncnc3ccc(F)cc23)cc1` [5as, 6-Fluoro-N-[2-(4-Fluorophenyl)Ethyl]-4-Quinazolinamine], the remaining activity at 10 µM at Hck(h) (setting [2]) turned out to be 74%; on IKKε(h) (setting [2]), 72%; at ZIPK(h) (setting [2]), 103%; at HPK1(h) (setting [2]), 98%; at SAPK2a(T106M)(h) (setting [2]) it was 115%; at CDK5/p35(h) (setting [2]), 87%. Moreover, the remaining activity at 10 µM came to 73% on Abl (M351T)(h) (setting [2]), 100% on Rse(h) (setting [2]) and 87% on SRPK2(h) (setting [2]).

Turning to `Fc1ccc2ncnc(NCCc3ccc(Cl)cc3)c2c1` [5at, N-[2-(4-Chlorophenyl)Ethyl]-6-Fluoro-4-Quinazolinamine], the remaining activity at 10 µM on Hck(h) (setting [3]) turned out to be 62%; at IKKε(h) (setting [3]), 79%; on ZIPK(h) (setting [3]) it was 109%; on HPK1(h) (setting [3]), 96%; at SAPK2a(T106M)(h) (setting [3]) it was 103%; at CDK5/p35(h) (setting [3]), 87%. The remaining activity at 10 µM was determined as 69% at Abl (M351T)(h) (setting [3]), 103% at Rse(h) (setting [3]) and 104% at SRPK2(h) (setting [3]).

As for `COc1ccc2ncnc(Nc3cccc(F)c3)c2c1` [5ay, N-(3-Fluorophenyl)-6-Methoxy-4-Quinazolinamine], the remaining activity at 10 µM was 64% on Hck(h) (setting [4]); 67% at IKKε(h) (setting [4]); 108% at ZIPK(h) (setting [4]); 92% on HPK1(h) (setting [4]); 121% on SAPK2a(T106M)(h) (setting [4]); 89% at CDK5/p35(h) (setting [4]). For the same molecule, the remaining activity at 10 µM at Abl (M351T)(h) (setting [4]) turned out to be 76%; at Rse(h) (setting [4]) it was 107%; on SRPK2(h) (setting [4]), 80%.
